Holding throughout (test): inhibition of tumour cell growth, NCI panel, 48 h
For assay [1], the system named is SN12C.
In assay [2] the test system is U-251.
The test system of assay [3] is RXF 393.
Assay [4] deals with NCI-H460.
Assay [5] deals with HOP-62.
Assay [6] has as its system TK-10.
In assay [7] the test system is SK-MEL-5.
The test system of assay [8] is SF-539.
For assay [9], the system named is IGROV-1.
For assay [10], the system named is SW-620.
For assay [11], the system named is EKVX.
Assay [12] has as its system NCI-H226.
Assay [13] concerns SK-MEL-28.
The test system of assay [14] is HCT-15.
In assay [15] the test system is SF-268.
The subject of assay [16] is HOP-92.
The subject of assay [17] is OVCAR-4.

Structures are written as SMILES.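 Step 1: Grow cells in 96-well plates. Step 2: Expose to compound for 48 hours at 5 concentrations. Step 3: Interpolate endpoints linearly; if unreached, use highest concentration. The concentration for 50% growth inhibition is given as GI50.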 Calls of active or inactive are those of the source. Rule as the data show it: active = GI50 up to about 1.1 µM and inactive = higher.

For `Cc1ccccc1NC(=O)c1cc2cc(/N=N/c3ccccc3C(=O)O)ccc2oc1=O`, the GI50 was 18.6 µM (inactive) in [1]; 21.4 µM (inactive) in [2]; 17.4 µM (inactive) in [3]; 21.1 µM (inactive) in [4]; 21.4 µM (inactive) in assay [5]; 48.2 µM (inactive) in assay [6]. Besides, the GI50 was 14.5 µM (inactive) in assay [7]; 18 µM (inactive) in assay [8]; 25 µM (inactive) in assay [9]; 27.4 µM (inactive) in assay [10]; 48.6 µM (inactive) in [11]; 20.8 µM (inactive) in assay [12]. The GI50 in [13] was 13.5 µM (inactive); in assay [14], 10.6 µM.
`CCCCOC(=O)NC(=O)c1cn(C2CCCCC2)c(=O)[nH]c1=O`: the GI50 in assay [1] was > 100 µM (inactive); in assay [15], 30.8 µM (inactive); in [16], 14.3 µM (inactive); in assay [2], 28.4 µM (inactive); in assay [4] it was > 100 µM (inactive); in assay [5] it was 25.3 µM (inactive). In addition, the GI50 in assay [6] was 46.9 µM (inactive); in assay [8] it was 18.5 µM (inactive); in assay [17], 21.8 µM (inactive); in [9] it was 39.2 µM (inactive); in [10], > 100 µM (inactive); in assay [11] it was > 100 µM (inactive). Also, the figures for the GI50 in assay [12], in assay [13] and in assay [14] were 20.3 µM (inactive), 39.8 µM (inactive) and greater than 100 µM, respectively.
As to `CC(=O)NC1C(OCc2ccccc2)OC(COC(=O)CCCCCCCCCCNC(=O)c2cccc3c(=O)c4ccccc4[nH]c23)C(O)C1OC(C)C(=O)NC(C)C(=O)NC(CCC(N)=O)C(N)=O` (stereo not given), the GI50 in assay [1] is > 100 µM (inactive); in [15] it was > 100 µM (inactive); in [2], 69.5 µM (inactive); in assay [4], 61.5 µM (inactive); in assay [5], > 100 µM (inactive); in [6] it was > 100 µM (inactive). In addition, the GI50 was 37.4 µM (inactive) in [7]; 92.9 µM (inactive) in assay [8]; 61 µM (inactive) in assay [17]; 50.1 µM (inactive) in assay [9]; 96.6 µM (inactive) in assay [10]; > 100 µM (inactive) in [11]. Further, the figures for the GI50 in assay [12], in assay [13] and in assay [14] were 38.7 µM (inactive), 47.3 µM (inactive) and 85.3 µM, respectively.
For the molecule `Cc1ccc(S(=O)(=O)OCC23CCC(CC2)C2CC23)cc1` (stereo not given), the GI50 in assay [1] is 45.4 µM (inactive); in assay [15], 37.5 µM (inactive); in assay [16] it was 25.8 µM (inactive); in [2], 50.9 µM (inactive); in assay [4] it was 42.4 µM (inactive); in assay [5] it was 48.3 µM (inactive). In addition, the GI50 is > 100 µM (inactive) in [6]; 24 µM (inactive) in assay [7]; 46 µM (inactive) in assay [17]; > 100 µM (inactive) in assay [9]; 87.1 µM (inactive) in assay [10]; 61.2 µM (inactive) in assay [12]. Also, the GI50 is 96.6 µM (inactive) in assay [13] and 47.6 µM in [14].
Regarding `CCCCCCCCCCCCCC(=O)OC1C(CO)OC(=O)C1O` (stereo not given), the GI50 is > 100 µM (inactive) in assay [1]; > 100 µM (inactive) in assay [15]; 26.7 µM (inactive) in assay [16]; 82.8 µM (inactive) in [2]; > 100 µM (inactive) in assay [3]; > 100 µM (inactive) in assay [4]. For the same molecule, the GI50 in [5], in assay [6], in assay [7], in assay [8], in [17] and in [9] was > 100 µM (inactive) each time. The GI50 in [10] is > 100 µM (inactive); in assay [11], > 100 µM (inactive); in [14], greater than 100 µM.
Regarding `O=C(O)C1=C(C(=O)Nc2ccc(NC(=O)C3=C(C(=O)O)C4C=CC3C4)cc2)C2C=CC1C2`, the GI50 in assay [1], in [15], in assay [16], in [2], in [3] and in assay [4] was > 100 µM (inactive) throughout. In addition, the GI50 in [5], in assay [6], in assay [7], in [8], in assay [17] and in assay [9] was > 100 µM (inactive) throughout. For the same molecule, the GI50 in [10] was > 100 µM (inactive); in assay [11] it was > 100 µM (inactive); in [13], > 100 µM (inactive); in assay [14], greater than 100 µM.
`CC1=C(C(=O)CC(=O)C(=O)NC2C3CC4CC(C3)CC2C4)Sc2ccccc2N1` (stereo not given): the GI50 was > 100 µM (inactive) in [1]; > 94.8 µM (inactive) in assay [15]; 20.1 µM (inactive) in [16]; > 100 µM (inactive) in [2]; > 100 µM (inactive) in [3]; > 100 µM (inactive) in [4]. Moreover, the GI50 in assay [5] was > 100 µM (inactive); in assay [6] it was > 100 µM (inactive); in assay [7], > 83.6 µM (inactive); in [8], > 100 µM (inactive); in assay [17], > 100 µM (inactive); in assay [9], > 100 µM (inactive). Besides, the GI50 is > 100 µM (inactive) in assay [10], > 100 µM (inactive) in [11], > 100 µM (inactive) in assay [13] and greater than 71.4 µM in assay [14].
On to `CNc1nnnn1C1OC(CO)C(O)C1O` (stereo not given), for which the GI50 in [1] was > 100 µM (inactive); in [15], > 100 µM (inactive); in assay [2], > 100 µM (inactive); in [3], 43.9 µM (inactive); in assay [4], > 100 µM (inactive); in assay [5] it was > 100 µM (inactive). The GI50 in [6], in [7], in [8], in assay [9], in [10] and in assay [11] was > 100 µM (inactive) throughout. In addition, the results for the GI50 in assay [12] and in assay [14] were > 100 µM (inactive) and greater than 100 µM, respectively.
As to `Cc1nc2c(n1Cc1ccc(Cl)cc1)C(=O)c1ccccc1C2=O`, the GI50 was > 75 µM (inactive) in assay [1]; 5.09 µM (inactive) in assay [15]; 3.48 µM (inactive) in [2]; 33.9 µM (inactive) in assay [3]; 1.75 µM (inactive) in [4]; 20.8 µM (inactive) in assay [5]. Besides, the GI50 in assay [6] is > 75 µM (inactive); in assay [7], 16.4 µM (inactive); in assay [8] it was 2.48 µM (inactive); in [17], > 75 µM (inactive); in assay [9], > 75 µM (inactive); in [11], > 75 µM (inactive). The GI50 in [12] was > 75 µM (inactive); in assay [13], > 75 µM (inactive); in [14], 1.07 µM.
Take `COc1cccc(NC(=O)/C(Cc2nc3ccccc3nc2C)=N/NC(=O)C[n+]2ccccc2)c1`: the GI50 in [1] is > 100 µM (inactive); in [15] it was > 100 µM (inactive); in assay [2], 17.7 µM (inactive); in [4], 66.4 µM (inactive); in assay [5], > 100 µM (inactive); in assay [6] it was > 100 µM (inactive). For the same molecule, the GI50 is > 100 µM (inactive) in assay [7]; > 100 µM (inactive) in assay [8]; > 100 µM (inactive) in assay [17]; > 100 µM (inactive) in assay [9]; 9.08 µM (inactive) in assay [10]; > 100 µM (inactive) in assay [11]. For the same molecule, the GI50 in [12] is > 100 µM (inactive); in assay [13] it was > 100 µM (inactive); in assay [14], greater than 100 µM.
On to `CCN(CC)C(=O)CC12CCCCC1=Nc1ccccc12` (stereo not given), for which the GI50 in assay [16] was 51.6 µM (inactive); in [2], > 100 µM (inactive); in assay [4], > 100 µM (inactive); in assay [5], > 100 µM (inactive); in [6], > 100 µM (inactive); in assay [7] it was > 100 µM (inactive). Besides, the GI50 in assay [8], in [17], in [9], in [10], in assay [11] and in [13] was > 100 µM (inactive) in each case. The molecule also gave a GI50 in assay [14] greater than 100 µM.
On to `Cn1ccnc1Cn1cc(-c2cccc(-c3cn[nH]c3)c2)cn1`, for which the GI50 was 69.7 µM (inactive) in assay [1]; 44.6 µM (inactive) in assay [15]; 50.1 µM (inactive) in assay [16]; 84.5 µM (inactive) in assay [2]; 24.8 µM (inactive) in assay [3]; > 100 µM (inactive) in assay [4]. The GI50 in [5] was > 100 µM (inactive); in assay [6], 35.5 µM (inactive); in [7], > 100 µM (inactive); in assay [17], 55.2 µM (inactive); in assay [10], 82.6 µM (inactive); in assay [11] it was 14.6 µM (inactive). The GI50 in [13] was > 100 µM (inactive); in [14], 79.3 µM.
As to `COC(=O)[C@H]1[C@H]2C[C@@H]3c4[nH]c5cc(OC)ccc5c4CCN3C[C@H]2C[C@@H](OC(=O)c2cc(OC)c(OC)c(OC)c2)[C@@H]1OC` [RESERPINE], the GI50 was 28.1 µM (inactive) in assay [15]; 10.8 µM (inactive) in assay [16]; 15 µM (inactive) in assay [2]; 18.9 µM (inactive) in assay [4]; 12.6 µM (inactive) in assay [5]; 17.5 µM (inactive) in assay [6]. Moreover, the GI50 in assay [7] is 15.7 µM (inactive); in assay [8], 11.6 µM (inactive); in assay [17] it was 12.7 µM (inactive); in assay [9] it was 21.5 µM (inactive); in [10], 26.8 µM (inactive); in assay [12], 19.6 µM (inactive). Moreover, the GI50 is > 10 µM (inactive) in [13] and 20.3 µM in [14].

The values above are taken from ChEMBL document CHEMBL1201862, “PubChem BioAssay data set” (2004).
